PubChem BioAssay AID720587 (Broad Institute, 2013)

test system: A673 Ewing sarcoma viability, CellTiter-Glo ATP luminescence, 72 h; assay: A673 Ewing sarcoma viability loss – cell-based, CellTiter-Glo luminescence, cherry-pick retest, confirmation (AID 720587)

Compound | AC35 [µM]
CN(C)c1ccc(C=c2c3ccccc3n3c2c2c([n+]3C)CCCC2)cc1 | 2.82
COc1ccc(S(=O)(=O)Nc2ccc3c(c2)C(=O)N([C@H](C)CO)C[C@@H](C)[C@@H](CN(C)CC2CCCCC2)OCCCC[C@H](C)O3)cc1 | 12.3
O=C1/C(=C\c2ccccc2)CN(C(=O)CCN2CCCCC2)C/C1=C/c1ccccc1 | 0.734
N#CC1=C(N)Oc2cc(N)ccc2C1c1cccc(F)c1 (centres undefined) | 3.12
CCCCNC(=O)C(c1ccc(OCC(=O)OC)c(C(=O)OC)c1)N(CCOC)C(=O)CCCCCN1C(=O)NC(c2ccc(-c3ccccc3)cc2)C(C(=O)OCc2ccccc2)=C1C (centres undefined) | 7.63
C[C@@H]1CN([C@H](C)CO)C(=O)Cc2cc(NC(=O)CCCCCC(=O)Nc3ccccc3N)ccc2O[C@@H]1CN(C)CC1CCCCC1 | 13.4
CCc1nc(N)nc(N)c1-c1ccc(Cl)cc1 | 8.71
C[C@@H]1CN([C@H](C)CO)C(=O)CCCn2nncc2CO[C@H]1CN(C)Cc1ccc(Oc2ccccc2)cc1 | 21.1
Cc1c(Cc2ccc3c(c2)OCO3)sc(NC(=O)C(C)(C)C)c1C#N | 14.9
COC1C(O)C(C)OC(OC2C(Oc3cccc4c(O)c5c(=O)oc6ccc(C)c7c(=O)oc(c34)c5c67)OC(C)C(O)C2O)C1O (centres undefined) | 6.33
C[C@@H]1CN([C@H](C)CO)C(=O)c2cccc(N(C)C)c2O[C@@H]1CN(C)Cc1ccc(C(=O)Nc2ccccc2N)cc1 | 19.6
C#CCOCCOCCOCCNc1nc(N2CCN(C(=O)CCCCCCCCCCNC(=O)Cn3cc(C[C@@H](C)O)nn3)CC2)nc(N2CCN(C(=O)CCCCCCCCCCNC(=O)[C@H](CO)n3cc(CCCSC)nn3)CC2)n1 | 13.3
CCNC(=O)c1cc2c(c(-c3cccc(-c4cccc(OC)c4)c3)n1)[C@H](CCO)N([S@@](=O)C(C)(C)C)C2 | 5.13
C[C@@H]1CN([C@@H](C)CO)C(=O)Cc2cc(N(C)C)ccc2O[C@@H]1CN(C)Cc1ccccc1 | 14.4
OCC1OC(n2ccc3c2ncn2ncnc32)C(O)C1O (centres undefined) | 0.693
O=C(N/N=C/c1cccs1)c1n[nH]c2c1CCCC2 | 17.7
Cc1ccc(N2C(=O)c3cccc4c(N)ccc(c34)C2=O)c2cccnc12 | 0.0576
COc1cc2oc3cc(C#Cc4ccc(N)cc4)ccc3c(=O)c2cc1OC | 17.4
OC[C@H]1O[C@@H](n2cnc3c(NCc4ccco4)ncnc32)[C@H](O)[C@@H]1O | 3.68
COc1ccc(/C=C2\SC(=S)N(CCCC(=O)NNC(=O)c3ccccc3O)C2=O)cc1 | 16.8
COc1ccccc1-c1ccc(OCCCN2CCC(C(O)(c3ccccc3)c3ccccc3)CC2)cc1 | 9.43

Compound | AC35 [µM]
COC(=O)C[C@@H]1CC[C@@H]2[C@H](COc3ccc(NC(=O)c4ccc(C(F)(F)F)cc4)cc3C(=O)N2C)O1 | 10.5
COC(=O)C[C@H]1CC[C@@H]2[C@H](COc3ccc(NC(=O)Nc4cccc(Cl)c4)cc3C(=O)N2C)O1 | 14.1
C[C@H](CO)N1C[C@H](C)[C@@H](CN(C)Cc2ccc(C(F)(F)F)cc2)OCCCC[C@H](C)Oc2ccc(NS(=O)(=O)c3ccc(F)cc3)cc2C1=O | 13.4
CCN1/C(=C/C=C/c2oc3ccc(-c4ccccc4)cc3[n+]2CC)Oc2ccc(-c3ccccc3)cc21 | 1.98
COC(=O)C[C@@H]1CC[C@@H]2[C@H](COc3ccc(NC(=O)c4ccc(F)c(F)c4)cc3C(=O)N2C)O1 | 19.7
S=c1[nH]nc(-c2cc(-c3ccccc3)n[nH]2)n1/N=C/C(Br)=C/c1ccccc1 | 5.5
O=c1c2ccccc2nc(/C=C/c2cc(Br)ccc2O)n1CCCO | 9.12
CCCC[C@@H]1Cc2[nH][nH]c(=O)c2[C@H](c2ccc3ccccc3c2)O1 | 7.67
Cc1nn(-c2ccc(F)cc2)c2nc(N)c(C#N)c(-c3ccc(O)c(O)c3)c12 | 8.63
O=C(c1nnsc1S(=O)c1ccc(Cl)cc1)N1CCOCC1 (centres undefined) | 5.46
CCc1ccc(S(=O)(=O)c2ccc(-n3nc(C)cc3N)cc2)cc1 | 17.8
N#C[C@H]1[C@H](c2ccc(-c3ccccc3F)cc2)[C@@H](CO)N1C(=O)c1ccccn1 | 14.5
C[C@@H]1CN([C@@H](C)CO)C(=O)Cc2cc(N(C)C)ccc2O[C@H]1CN(C)Cc1ccc(C(=O)Nc2ccccc2N)cc1 | 8.7
O=c1cc(-c2ccccc2)oc2ccc3ccccc3c12 | 5.83
C[C@@H]1O[C@@H](O[C@@H]2C=C3CCC4C(CC[C@]5(C)[C@@H](c6ccc(=O)oc6)CC[C@]45O)[C@@]3(C)CC2)[C@H](O)[C@H](O)[C@H]1O (some centres undefined) | 0.0136
CCN1C/C(=C/c2ccc(N3CCOCC3)cc2)C(=O)/C(=C/c2ccc(N3CCOCC3)cc2)C1 | 3.68
C[C@H]1CN([C@@H](C)CO)C(=O)Cc2cc(NC(=O)CCCCCC(=O)Nc3ccccc3N)ccc2O[C@H]1CN(C)Cc1ccc(C(F)(F)F)cc1 | 12.5
COC1C(O)C(C)OC(OC2CCC3(C)C(CCC4C3C(O)CC3(C)C(C5=CC(=O)OC5)CCC43O)C2)C1O (centres undefined) | 0.228
Cc1ccc(S(=O)(=O)Nc2ccc3c(c2)C(=O)N([C@@H](C)CO)C[C@@H](C)[C@H](CN(C)Cc2ccc(C(F)(F)F)cc2)OCCCC[C@H](C)O3)cc1 | 12.1
Oc1c(Cl)cc(Cl)c2cccnc12 | 5.58
C[C@@H]1CN([C@H](C)CO)S(=O)(=O)c2ccc(C#Cc3ccncc3)cc2O[C@@H]1CN(C)C(=O)Nc1ccc2c(c1)OCO2 | 19.4

Compound | AC35 [µM]
CCCCCCN(C(=O)CCCCCN1C(=O)NC(c2ccc(Cl)cc2)C(C(=O)OCc2ccccc2)=C1C)C(C(=O)NCCCC)c1ccc(OCC(=O)OC)c(C(=O)OC)c1 (centres undefined) | 10.8
C[C@H]1CN([C@@H](C)CO)C(=O)c2cccc(NC(=O)CCCCCC(=O)Nc3ccccc3N)c2O[C@@H]1CN(C)Cc1ccc2c(c1)OCO2 | 23.6
C=C1C(=O)C=C[C@]2(C)C[C@@H]3OC(=O)[C@](C)(O)[C@H]3C[C@@H]12 | 4.67
COc1ccc(-c2nc3c(s2)CCc2onc(-c4ccc(OC)cc4)c2-3)cc1 | 8
COc1ccc(CN(C)c2ncnc3sccc23)c(OC)c1OC | 15.3
Cc1sc2nc(CN3CCC(C)CC3)nc(Cl)c2c1C | 10.7
CCOc1ccc(OCc2ccc(C(=O)NN=Cc3ccc[nH]3)cc2)cc1 | 0.667
Cc1nn(Cc2ccccc2Cl)c2sc(C(=O)Nc3ccccc3N3CCOCC3)cc12 | 13.5
COC(=O)C[C@@H]1CC[C@@H]2[C@H](COc3ccc(NC(=O)Nc4cccc(Cl)c4)cc3C(=O)N2C)O1 | 12.5
O=C(CCc1ccccc1)NC(c1cccs1)c1cc(Cl)c2cccnc2c1O (centres undefined) | 0.694
NC1=CC(=O)C(=O)c2cccnc21 | 11.1
CCCCCCCN(c1ccccc1)[C@@H]1C[C@H]2CCCC(=O)N3CC[C@@H](C1)[C@@H]23 | 10.2
Nc1nc(N)c2c(ccc3nccc32)[nH]1 | 7.01
C[C@]12CC[C@H](O)C[C@H]1CC[C@@H]1[C@@H]2CC[C@]2(C)[C@@H](C3=CC(=O)OC3)CC[C@]12O | 0.62
Cc1c(Cl)cccc1NC(=O)CCC(=O)N/N=C/c1ccc[nH]1 | 6.52
CCN(Cc1ccccc1)c1ccc(/C=N/N=C(N)N)cc1 | 6.3
Oc1[nH]c2ccc(Br)cc2c1N=NC(=S)N1CCOCC1 | 0.236
COc1cccc(-c2cccc(-c3nc(C(=O)NCC(F)(F)F)cc4c3[C@H](CCO)N([S@@](=O)C(C)(C)C)C4)c2)c1 | 8.4
COC(=O)C[C@@H]1CC[C@@H]2[C@@H](COc3ccc(NC(=O)Nc4ccc(C#N)cc4)cc3C(=O)N2C)O1 | 9.7
N#CC(=C1C=CC(=NO)C(Cl)=C1)c1ccccc1 | 5.59
C[C@H]1O[C@@H](O[C@H]2[C@@H](O)C[C@H](O[C@H]3[C@@H](O)C[C@H](O[C@H]4CC[C@@]5(C)[C@H](CC[C@@H]6[C@@H]5C[C@@H](O)[C@]5(C)[C@@H](C7=CC(=O)OC7)CC[C@]65O)C4)O[C@@H]3C)O[C@@H]2C)C[C@H](O)[C@@H]1O | 0.173

Compound | AC35 [µM]
COc1ccc(C2=NNC(=Nc3cc(S(=O)(=O)N(C)C)ccc3C)SC2)c(OC)c1 | 20.5
COc1cc(-c2coc3c(C(=O)NCc4ccc(C(F)(F)F)cc4)cccc23)ccc1O | 13.7
O=C1NC(=O)N(Cc2ccco2)C(=O)/C1=C/C=C/c1ccco1 | 5.61
COc1ccc(/C=C/C(=O)c2cc(F)ccc2OC(=O)c2ccccc2OC)cc1OC | 4.54
C[C@H]1CN([C@@H](C)CO)S(=O)(=O)c2ccc(C#Cc3ccncc3)cc2O[C@@H]1CN(C)S(=O)(=O)c1ccccc1 | 16.5
Cc1ccc2nc(-c3ccccc3)nn2c1 | 13.8
Cc1ccc(S(=O)(=O)Nc2ccc3c(c2)C(=O)N([C@@H](C)CO)C[C@@H](C)[C@@H](CN(C)Cc2ccc(C(=O)Nc4ccccc4N)cc2)O3)cc1 | 9.91
CO[C@H]1CN(C)C(=O)c2ccc(NC(=O)c3ccc(-c4ccccc4)cc3)cc2OC[C@H](C)NC[C@H]1C | 10.5
C[C@H](CO)N1C[C@H](C)[C@@H](CN(C)Cc2ccc(Oc3ccccc3)cc2)Oc2ccc(NS(=O)(=O)c3ccc(Cl)cc3)cc2CC1=O | 16.2
Cc1[nH][nH]c(=O)c1C(c1c(C)[nH][nH]c1=O)c1cn(Cc2ccc(Cl)c(Cl)c2)c2ccccc12 | 9.8
COc1cc(-c2noc(C)c2C#Cc2nccn2C)cc(OC)c1OC | 15.9
COc1ccc(C=C2CCc3ccccc3C2=O)cc1 | 18.9
C[C@@H]1CN([C@@H](C)CO)C(=O)c2cc(NS(=O)(=O)c3ccccc3)ccc2O[C@@H]1CN(C)Cc1ccc(C(=O)Nc2ccccc2N)cc1 | 8.39
Cc1ccc2c(c1)C(=O)N1[C@H]3c4cc(Br)ccc4OC[C@@H]3[C@H](c3ccccc3)[C@]1(C)C(=O)N2 | 14.5
C[C@H]1CN([C@@H](C)CO)C(=O)Cc2cc(NC(=O)CCCCCC(=O)Nc3ccccc3N)ccc2O[C@H]1CN(C)Cc1ccc(Oc2ccccc2)cc1 | 6.08
COc1ccc(NC(=O)N2CCCCN3[C@@H](CO)[C@H](c4ccc(C5=CCCCC5)cc4)[C@@H]3C2)cc1 | 10.3
COc1ccc(NC(=O)N2CCCCN3[C@H](CO)[C@H](c4ccc(C#CCC(C)C)cc4)[C@H]3C2)cc1 | 6.47
CN1c2ccc(-c3ccc(C#N)cc3)cc2[C@H]2[C@H](CCN2S(=O)(=O)c2cccc(F)c2)[C@@H]1CO | 4.45
COc1ccc([Si](C)(C)[C@H]2[C@H](CCO)O[C@@]3(C(=O)N(c4ccccc4)c4ccccc43)[C@@H]2C)cc1 | 7.61
C[C@H]1CN([C@@H](C)CO)C(=O)c2cc(N(C)C)ccc2O[C@@H]1CN(C)Cc1ccc(C(=O)Nc2ccccc2N)cc1 | 14.1
CC(C)(C)[S@](=O)N1Cc2cc(C(=O)NCC(F)(F)F)nc(-c3cccc(-c4cccc(F)c4)c3)c2[C@@H]1CCO | 14.3
